In ChEMBL document CHEMBL1149209, “Synthesis and structure-activity relationship of 2-(aminoalkyl)-3,3a,8,12b-tetrahydro-2H-dibenzocyclohepta[1,2-b]furan derivatives: a novel series of 5-HT(2A/2C) receptor antagonists” (Bioorg Med Chem Lett, 2004) one finds Ki and ED50 data, which are given here for 22 compounds.

One experiment concerns the target Histamine H1 receptor (Homo sapiens, UniProt P35367). Put plainly: Ability to displace [3H]pyrilamine from human cloned histamine H1 receptor expressed in CHO cells. The class given is cell-based.
Experiment [1] deals with T1, 5-hydroxytryptamine receptor 2C (Homo sapiens, UniProt P28335).
T1 sequence (P28335 whole entry): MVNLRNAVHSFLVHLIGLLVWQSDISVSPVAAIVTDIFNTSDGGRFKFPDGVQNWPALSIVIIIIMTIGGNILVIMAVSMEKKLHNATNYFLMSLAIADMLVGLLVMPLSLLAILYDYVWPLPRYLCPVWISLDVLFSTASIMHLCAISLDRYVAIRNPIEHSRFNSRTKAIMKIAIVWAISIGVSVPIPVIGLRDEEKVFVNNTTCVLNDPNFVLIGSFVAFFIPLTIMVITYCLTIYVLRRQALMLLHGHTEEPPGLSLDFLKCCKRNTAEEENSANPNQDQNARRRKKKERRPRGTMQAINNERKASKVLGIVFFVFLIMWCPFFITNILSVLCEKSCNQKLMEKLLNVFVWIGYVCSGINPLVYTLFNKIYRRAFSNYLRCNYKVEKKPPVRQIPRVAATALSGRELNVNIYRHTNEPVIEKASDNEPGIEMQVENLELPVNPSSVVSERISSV
Put plainly: Ability to displace [3H]- mesulergine from human cloned 5-hydroxytryptamine 2C receptor expressed in CHO cells. It is filed as cell-based.

Experiment [2] concerns the target 5-hydroxytryptamine receptor 2A (Homo sapiens, UniProt P28223). Put plainly: Ability to displace [125I]R91150 from human cloned 5-hydroxytryptamine 2A receptor expressed in L929 cells. The class given is cell-based.
A further experiment has as its system Rattus norvegicus. Put plainly: Effective dose required for antagonistic activity in mCPP challenge test in male wistar rats after subcutaneous administration. The class given is functional. As to conditions: sc.

pKi: −log10 of the molar value.

Chain of 5-hydroxytryptamine receptor 2A (P28223 whole entry): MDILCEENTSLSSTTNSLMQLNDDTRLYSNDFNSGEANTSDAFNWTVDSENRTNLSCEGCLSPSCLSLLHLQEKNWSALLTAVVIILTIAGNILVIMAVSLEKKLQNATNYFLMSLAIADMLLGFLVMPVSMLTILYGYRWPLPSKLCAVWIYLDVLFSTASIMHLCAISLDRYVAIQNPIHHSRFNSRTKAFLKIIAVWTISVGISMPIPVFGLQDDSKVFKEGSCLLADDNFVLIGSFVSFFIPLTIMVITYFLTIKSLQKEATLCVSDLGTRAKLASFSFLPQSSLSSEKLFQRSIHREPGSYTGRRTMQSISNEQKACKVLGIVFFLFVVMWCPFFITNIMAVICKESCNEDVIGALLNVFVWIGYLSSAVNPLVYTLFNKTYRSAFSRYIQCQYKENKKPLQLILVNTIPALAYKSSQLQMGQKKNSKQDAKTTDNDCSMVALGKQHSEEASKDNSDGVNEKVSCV
Chain of Histamine H1 receptor (P35367 whole entry): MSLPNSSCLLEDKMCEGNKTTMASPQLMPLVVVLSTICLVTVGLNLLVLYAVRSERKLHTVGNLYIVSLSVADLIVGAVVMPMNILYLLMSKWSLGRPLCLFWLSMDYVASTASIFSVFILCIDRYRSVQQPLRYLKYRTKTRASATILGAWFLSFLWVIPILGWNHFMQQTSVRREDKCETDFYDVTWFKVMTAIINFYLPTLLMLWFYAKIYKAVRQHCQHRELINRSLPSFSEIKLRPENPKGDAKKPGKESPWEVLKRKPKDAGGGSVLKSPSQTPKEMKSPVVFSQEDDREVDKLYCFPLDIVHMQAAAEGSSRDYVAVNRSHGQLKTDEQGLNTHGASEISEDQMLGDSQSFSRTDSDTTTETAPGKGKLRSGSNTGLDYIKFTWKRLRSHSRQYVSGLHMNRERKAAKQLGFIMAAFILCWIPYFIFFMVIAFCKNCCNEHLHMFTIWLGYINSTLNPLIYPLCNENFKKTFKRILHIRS

As usually defined, the pKi is the Ki on a negative log10 scale, so that one unit is a factor of ten. Read a high pKi as a low Ki. Turning to `c1ccc(C2CCN(CC3C[C@@H]4c5ccccc5Sc5ccccc5[C@H]4O3)CC2)cc1` (stereo partly specified), the negative logarithm of the Ki (pKi) at Histamine H1 receptor was 7.33; in experiment [1], 6.62; in experiment [2], 7.16.

Turning to `CN1CCN(CC2C[C@@H]3c4ccccc4Sc4ccccc4[C@H]3O2)CC1` (stereo partly specified), the pKi at Histamine H1 receptor was 8.92; in experiment [1] it was 6.92; in experiment [2] it was 7.76.

`CN1CCN(CC2C[C@@H]3c4ccccc4Cc4ccccc4[C@H]3O2)CC1` (stereo partly specified): the values for the negative logarithm of the Ki (pKi) (at Histamine H1 receptor; in experiment [1]; in experiment [2]) were 8.52, 6.17 and 6.36, respectively.

Take `CN(C)CC1C[C@@H]2c3ccccc3Sc3ccccc3[C@H]2O1` (stereo partly specified): the pKi at Histamine H1 receptor is 8.37; in experiment [1] it was 7.61; in experiment [2], 7.51.

The ED50 is the midpoint of the dose-response relation. Take `CN(C)C[C@@H]1C[C@H]2c3ccccc3Cc3ccccc3[C@@H]2O1`: the pKi is 8.43 at Histamine H1 receptor, 7.55 in experiment [1] and 6.98 in experiment [2]. In the experiment on Rattus norvegicus, this compound gave an ED50 of 1.26 mg/kg.

On to `CN(C)CC1C[C@@H]2c3ccccc3COc3ccccc3[C@H]2O1` (stereo partly specified), for which the values for the negative-log Ki (pKi) (on Histamine H1 receptor; in experiment [1]; in experiment [2]) were 7.69, 6.91 and 5.97, respectively.

For the compound `CN(C)CC1C[C@@H]2c3ccccc3N(C)c3ccccc3[C@H]2O1` (stereo partly specified), the pKi at Histamine H1 receptor was 8.22; in experiment [1] it was 7.89; in experiment [2], 7.09.

For the compound `CN(C)C[C@@H]1C[C@@H]2c3ccccc3Cc3ccccc3N2O1`, the pKi on Histamine H1 receptor was 9.19; in experiment [1], 9.00; in experiment [2] it was 8.60. Besides, in the experiment with Rattus norvegicus, the 50% effective dose (ED50) was found to be 0.04 mg/kg.

On to `O=C(c1ccc(F)cc1)C1CCN(CC2C[C@@H]3c4ccccc4Cc4ccccc4[C@H]3O2)CC1` (stereo partly specified), for which the pKi is 8.72 on Histamine H1 receptor, 7.77 in experiment [1] and 6.36 in experiment [2].

In the case of `CN(C)C[C@@H]1C[C@@H]2c3ccccc3Cc3ccccc3[C@H]2O1`, the negative logarithm of the Ki (pKi) at Histamine H1 receptor is 9.20; in experiment [1] it was 8.49; in experiment [2], 7.71. Further, in the experiment on Rattus norvegicus, it took a dose of 0.06 mg/kg to reach the 50% effect level (ED50).

For the compound `CN(C)C[C@H]1C[C@@H]2c3ccccc3Cc3ccccc3[C@H]2O1`, the values for the pKi (on Histamine H1 receptor; in experiment [1]; in experiment [2]) were 9.27, 9.03 and 8.60, respectively. The same compound returned an ED50 in the experiment on Rattus norvegicus of 0.04 mg/kg.

In the case of `CNCC1C[C@@H]2c3ccccc3Cc3ccccc3[C@H]2O1` (stereo partly specified), the pKi at Histamine H1 receptor is 8.03; in experiment [1], 8.01; in experiment [2], 7.31.

Take `CN(C)CC1C[C@H]2c3ccccc3Oc3ccccc3[C@H]2O1` (stereo partly specified): the figures for the pKi (on Histamine H1 receptor; in experiment [1]; in experiment [2]) were 7.49, 6.74 and 7.03, respectively.

Consider `Clc1cccc(N2CCN(CC3C[C@@H]4c5ccccc5Cc5ccccc5[C@H]4O3)CC2)c1` (stereo partly specified), for which the values for the negative-log Ki (pKi) (at Histamine H1 receptor; in experiment [1]; in experiment [2]) were 6.33, 6.97 and 7.25, respectively.

As to `OCCN1CCN(CC2C[C@@H]3c4ccccc4Cc4ccccc4[C@H]3O2)CC1` (stereo partly specified), the figures for the pKi (on Histamine H1 receptor; in experiment [1]; in experiment [2]) were 8.43, 6.77 and 7.06, respectively.

For `CN(C)CC1C[C@@H]2c3ccccc3Cc3ccccc3[C@H]2O1` (stereo partly specified), the values for the pKi (at Histamine H1 receptor; in experiment [1]; in experiment [2]) were 9.15, 8.17 and 7.66, respectively.

For `CN(C)CC1C[C@@H]2c3ccccc3OCc3ccccc3[C@H]2O1` (stereo partly specified), the pKi on Histamine H1 receptor is 8.02; in experiment [1], 7.49; in experiment [2], 7.04.

Consider `CN(C)CC1C[C@@H]2c3ccccc3Oc3ccccc3[C@H]2O1` (stereo partly specified), for which the pKi on Histamine H1 receptor was 7.85; in experiment [1] it was 7.51; in experiment [2], 7.43.

Take `c1ccc2c(c1)Cc1ccccc1[C@H]1OC(CN3CCOCC3)C[C@H]21` (stereo partly specified): the pKi was 8.63 at Histamine H1 receptor, 7.57 in experiment [1] and 6.36 in experiment [2].

Consider `c1ccc(C2CCN(CC3C[C@@H]4c5ccccc5Cc5ccccc5[C@H]4O3)CC2)cc1` (stereo partly specified), for which the values for the pKi (at Histamine H1 receptor; in experiment [1]; in experiment [2]) were 7.53, 7.37 and 5.96, respectively.

Consider `CN(C)CC1C[C@H]2c3ccccc3Cc3ccccc3[C@H]2O1` (stereo partly specified), for which the pKi at Histamine H1 receptor was 7.57; in experiment [1], 6.78; in experiment [2], 6.99.

In the case of `CNC[C@@H]1CC2c3ccccc3Cc3ccccc3C2O1` (single isomer, unassigned), the negative-log Ki (pKi) at Histamine H1 receptor is 8.46; in experiment [1], 7.80; in experiment [2], 7.13. In addition, the ED50 in the experiment with Rattus norvegicus worked out at 2.2 mg/kg.
